Measured values as given in PubChem BioAssay (NCI).
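96-well plates; 48 h exposure; 5 concentrations. Endpoints by linear interpolation between flanking doses. Not reached: highest tested concentration assigned. GI50 marks 50% less growth. TGI is the concentration that stops growth completely.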

Columns and labels:
Assay in all cases: NCI tumour cell line growth inhibition, 48 h
[1] = test system: M14 melanoma
[2] = test system: NCI-H23 lung
[3] = test system: SK-MEL-28 melanoma
[4] = test system: SK-MEL-5 melanoma
[5] = test system: T-47D breast
[6] = test system: UO-31 renal
[7] = test system: NCI-H522 lung
[8] = test system: HCT-15 colon
[9] = test system: KM12 colon
[10] = test system: 786-0 renal
[11] = test system: BT-549 breast
[12] = test system: HL-60(TB) leukemia
[13] = test system: A498 renal
[14] = test system: MDA-MB-231 breast
[15] = test system: SK-OV-3 ovarian
[16] = test system: NCI-H460 lung
[17] = test system: K-562 leukemia
[18] = test system: RPMI-8226 leukemia
[19] = test system: COLO 205 colon
[20] = test system: OVCAR-4 ovarian
[21] = test system: HS 578T breast
[22] = test system: DU-145 prostate
[23] = test system: TK-10 renal
[24] = test system: OVCAR-5 ovarian
[25] = test system: NCI/ADR-RES ovarian
[26] = test system: SW-620 colon

With `NC(=O)c1ccccc1Nc1ccc2nnc(-c3ccncc3)n2n1` the GI50 [1] was 11.1 µM, the TGI [1] was 26.5 µM and the GI50 [2] was 15 µM. For the same compound, the TGI [2] was 40.4 µM, the GI50 [3] was 15.3 µM and the TGI [3] was 29.8 µM. The GI50 [4] was 4.74 µM, the TGI [4] was 16.9 µM and the GI50 [5] was 4.69 µM. The TGI [5] was 20.3 µM, the GI50 [6] was 4.49 µM and the TGI [6] was 17.6 µM. The GI50 [7] was 4.46 µM, the TGI [7] was 18 µM and the GI50 [8] was 5.48 µM. The TGI [8] was 22.4 µM, the GI50 [9] was 9.34 µM and the TGI [9] was 21.2 µM. It also gave a GI50 [10] of 10.8 µM, a TGI [10] of 23.1 µM and a GI50 [11] of 1.9 µM. It also gave a TGI [11] of 3.83 µM, a GI50 [12] of 14.3 µM and a TGI [12] of 39.6 µM. The GI50 [13] was 14.2 µM, the TGI [13] was 27.2 µM and the GI50 [14] was 9.39 µM. For the same compound, the TGI [14] was 25.6 µM, the GI50 [15] was 15.4 µM and the TGI [15] was 44.4 µM. It also gave a GI50 [16] of 4.44 µM, a TGI [16] of 16.9 µM and a GI50 [17] of 11.1 µM. It also gave a TGI [17] of 60.4 µM, a GI50 [18] of 3.43 µM and a TGI [18] of 17.4 µM. The GI50 [19] was 11.6 µM, the TGI [19] was 26.7 µM and the GI50 [20] was 15.1 µM. For the same compound, the TGI [20] was 30.5 µM, the GI50 [21] was 18.1 µM and the TGI [21] was 58.3 µM. It also gave a GI50 [22] of 14.3 µM, a TGI [22] of 27.3 µM and a GI50 [23] of 6.81 µM. The TGI [23] was 20.7 µM, the GI50 [24] was 15.4 µM and the TGI [24] was 29.8 µM. The GI50 [25] was 14.7 µM, the TGI [25] was 44.7 µM and the GI50 [26] was 5.6 µM. The TGI [26] was 19.1 µM.
